# Biological target: T1, Human glucocorticoid receptors (Homo sapiens, UniProt P04150)
# T1 construct: made in house; host or cells: Sf9 insect cells, recombinant baculovirus (BAC-TO-BAC)
# T1 sequence (P04150 1-777): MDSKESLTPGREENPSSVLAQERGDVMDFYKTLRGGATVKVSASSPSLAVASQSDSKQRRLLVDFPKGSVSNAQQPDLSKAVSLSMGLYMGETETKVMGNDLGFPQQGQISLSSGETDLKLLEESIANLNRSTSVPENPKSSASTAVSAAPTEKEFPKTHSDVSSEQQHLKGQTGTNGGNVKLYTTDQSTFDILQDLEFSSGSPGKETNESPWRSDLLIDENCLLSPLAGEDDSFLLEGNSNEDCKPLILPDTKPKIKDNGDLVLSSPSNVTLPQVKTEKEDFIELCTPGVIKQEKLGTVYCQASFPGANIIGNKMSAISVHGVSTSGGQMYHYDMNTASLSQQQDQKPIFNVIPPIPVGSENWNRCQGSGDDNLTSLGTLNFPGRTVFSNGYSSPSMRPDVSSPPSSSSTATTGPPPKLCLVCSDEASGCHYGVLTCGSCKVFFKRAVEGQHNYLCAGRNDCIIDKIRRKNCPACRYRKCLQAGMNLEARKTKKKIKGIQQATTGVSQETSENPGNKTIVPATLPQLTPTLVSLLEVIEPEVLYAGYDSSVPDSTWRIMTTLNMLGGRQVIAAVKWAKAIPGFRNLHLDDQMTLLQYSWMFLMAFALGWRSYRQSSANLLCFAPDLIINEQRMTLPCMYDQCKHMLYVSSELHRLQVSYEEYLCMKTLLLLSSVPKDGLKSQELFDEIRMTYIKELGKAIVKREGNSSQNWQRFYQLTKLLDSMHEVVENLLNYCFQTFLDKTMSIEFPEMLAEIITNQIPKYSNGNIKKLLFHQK
# Test: Radioligand filter binding assay, displacement of 3[H]-dexamethasone from hGR
# Conditions: read-out: GR Binding (% Inhibition at 1.7 μM)
# Excerpt: Dexamethasone hereafter referred to as dex was purchased from SIGMA. […] Human glucocorticoid receptors were extracted from Sf9 cells infected with a recombinant baculovirus transfer vector containing the cloned hGR genes. Recombinant baculovirus was generated utilizing the BAC-TO-BAC expression system (Life Technologies) in accordance to instruction from the supplier. The hGR coding sequences were cloned into a baculovirus transfer vector by standard techniques. The recombinant baculoviruses expressing hGR were amplified and used to infect Sf9 cells. Infected cells were harvested 48 hrs post infection. […] The concentration of hGR in the extract was measured as specific ^3[H]-dex binding with the G25-assay as described in J. Steroid Biochem. Molec. […] The extract was aliquoted and stored at −70° C.
# The filter binding assay: Dilution series of the test compounds and dex as reference were made from 10 mM (1 mM dex) stock solutions in DMSO. 10 μl of the dilutions was added in duplicates to the wells. The cell extracts were diluted 10 fold in EPMo+MTG buffer (1 mM EDTA, HPO4 20 mM (pH8), 6 mM MTG). […] 110 μl of the diluted ^3[H]-dex were added to the wells. The final concentration of hGR in the experiment was estimated to 1 nM. All preparations were made in […] on ice and with +4° C. temperated buffers. The plates were incubated over night at +4° C. (15-20 hours).
# The incubation was stopped by filtration through GF/B filter on the Tomtec Cellharvester. The filtration on the Tomtec Cellharvester was programmed as follows: 1) Preparation before filtration with EP buffer (1 mM EDTA 20 mM HPO4 (pH8)) 2×[Wash/Asp 0.6 sec., Asp 0.5 sec.]; 2) Prewet of GF/B filter with EP+PEI buffer (EP buffer, 0.3% Polyethylenimine) [Asp 0.8 sec.]; 3) Filtration/harvesting of the 96-well incubation plate 3×[Wash/Asp 0.6 sec., Asp 0.5 sec.]. The GF/B filter was dried for at least 1 hour at 65° C. A MeltiLex scintillation wax was melted onto the filter with the Microsealer. The filter was placed in a samplebag, which was thereafter trimmed with scissors to fit the filter cassette. The cassette were placed in the Microbeta and measured for 1 min/position, returning ccpm (corrected counts per minute).
# b=((bmax−bmin)/(1+(I/IC50)^S))+bminI
# The Microbeta-instrument generates the mean cpm (counts per minute) value/minute and corrects for individual variations between the detectors thus generating corrected cpm values.
row,Structure (SMILES),inhibition at 1.7 µM [%]
1,"CCOC(=O)CN(C)C(=O)CCCOc1cccc(Oc2ccc(CN(Cc3ccccc3)c3cccc(NS(C)(=O)=O)c3C)cc2)c1 [Example 239, ethyl N-[4-(3-{4-[(benzyl{2-methyl-3-[(methylsulfonyl)amino]phenyl}amino)methyl]phenoxy}phenoxy)butanoyl]-N-methylglycinate]",93.4
2,"Cc1c(NS(C)(=O)=O)cccc1N(Cc1ccccc1)Cc1ccc(C(=O)c2cccc(OCCC3CC3)c2)cc1 [Example 242, N-[3-(benzyl{4-[3-(2-cyclopropylethoxy)benzoyl]benzyl}amino)-2-methylphenyl]methanesulfonamide]",94.1
3,"Cc1c(NS(C)(=O)=O)cccc1N(Cc1ccccc1)Cc1ccc(C(=O)c2cccc(OCC3CCCO3)c2)cc1 (stereo not shown) [Example 244, N-[3-(benzyl{4-[3-(tetrahydrofuran-2-ylmethoxy)benzoyl]benzyl}amino)-2-methylphenyl]methanesulfonamide]",95.3
4,"Cc1c(NS(C)(=O)=O)cccc1N(Cc1ccccc1)Cc1ccc(C(=O)c2cccc(OCc3ccccc3)c2)cc1 [Example 247, N-[3-(benzyl{4-[3-(benzyloxy)benzoyl]benzyl}amino)-2-methylphenyl]methanesulfonamide]",90.9
5,"Cc1c(NS(C)(=O)=O)cccc1N(Cc1ccccc1)Cc1ccc(Oc2ccc(OCCCC(=O)NCCC(=O)O)cc2)cc1 [Example 252, N-[4-(4-{4-[(benzyl{2-methyl-3-[(methylsulfonyl)amino]phenyl}amino)methyl]phenoxy}phenoxy)butanoyl]-beta-alanine]",91.9
6,"Cc1c(NS(C)(=O)=O)cccc1N(Cc1ccccc1)Cc1ccc(Oc2ccc(OCCCC(=O)N[C@@H](CCC(=O)O)C(=O)O)cc2)cc1 [Example 255, N-[4-(4-{4-[(benzyl{2-methyl-3-[(methylsulfonyl)amino]phenyl}amino)methyl]phenoxy}phenoxy)butanoyl]-L-glutamic acid]",93.6
7,"Cc1c(NS(C)(=O)=O)cccc1N(Cc1ccccc1)Cc1ccc(Oc2ccc(OCCCC(=O)N[C@H](C(=O)O)C(C)C)cc2)cc1 [Example 256, N-[4-(4-{4-[(benzyl{2-methyl-3-[(methylsulfonyl)amino]phenyl}amino)methyl]phenoxy}phenoxy)butanoyl]-L-valine]",92.6
8,"Cc1c(NS(C)(=O)=O)cccc1N(Cc1ccccc1)Cc1ccc(Oc2ccc(OCCCC(=O)N[C@@H](CO)C(=O)O)cc2)cc1 [Example 258, N-[4-(4-{4-[(benzyl{2-methyl-3-[(methylsulfonyl)amino]phenyl}amino)methyl]phenoxy}phenoxy)butanoyl]-L-serine]",91.6
9,"CC[C@H](C)[C@H](NC(=O)CCCOc1ccc(Oc2ccc(CN(Cc3ccccc3)c3cccc(NS(C)(=O)=O)c3C)cc2)cc1)C(=O)O [Example 259, N-[4-(4-{4-[(benzyl{2-methyl-3-[(methylsulfonyl)amino]phenyl}amino)methyl]phenoxy}phenoxy)butanoyl]-L-isoleucine]",91.2
10,"Cc1c(NS(C)(=O)=O)cccc1N(Cc1ccccc1)Cc1ccc(Oc2ccc(OCCCC(=O)N[C@@H](CCC(N)=O)C(=O)O)cc2)cc1 [Example 260, N˜2˜-[4-(4-{4-[(benzyl{2-methyl-3-[(methylsulfonyl)amino]phenyl}amino)methyl]phenoxy}phenoxy)butanoyl]-L-glutamine]",91.3

# Second part, the compound after the results:
row,inhibition at 1.7 µM [%],Structure (SMILES)
1,94.2,"CCCCCCc1ccc(Oc2ccc(CN(Cc3ccc(F)cc3F)c3cccc(NS(C)(=O)=O)c3C)cc2)cc1OCC(=O)O [Example 238, (5-{4-[((2,4-difluorobenzyl){2-methyl-3-[(methylsulfonyl)amino]phenyl}amino)methyl]phenoxy}-2-hexylphenoxy)acetic acid]"
2,93.3,"Cc1c(NS(C)(=O)=O)cccc1N(Cc1ccccc1)Cc1ccc(Oc2cccc(OCCCC(=O)N(C)CC(=O)O)c2)cc1 [Example 240, N-[4-(3-{4-[(benzyl{2-methyl-3-[(methylsulfonyl)amino]phenyl}amino)methyl]phenoxy}phenoxy)butanoyl]-N-methylglycine]"
3,90.6,"CCOC(=O)COc1cc(Oc2ccc(CN(Cc3ccc(F)cc3F)c3cccc(NS(C)(=O)=O)c3C)cc2)ccc1Cl [Example 241, ethyl (2-chloro-5-{4-[((2,4-difluorobenzyl){2-methyl-3-[(methylsulfonyl)amino]phenyl}amino)methyl]phenoxy}phenoxy)acetate]"
4,92,"Cc1c(NS(C)(=O)=O)cccc1N(Cc1ccccc1)Cc1ccc(C(=O)c2cccc(OCC3CCCC3)c2)cc1 [Example 243, N-[3-(benzyl{4-[3-(cyclopentylmethoxy)benzoyl]benzyl}amino)-2-methylphenyl]methanesulfonamide]"
5,96.3,"Cc1c(NS(C)(=O)=O)cccc1N(Cc1ccccc1)Cc1ccc(C(=O)c2cccc(OCC3CCOC3)c2)cc1 (stereo not shown) [Example 245, N-[3-(benzyl{4-[3-(tetrahydrofuran-3-ylmethoxy)benzoyl]benzyl}amino)-2-methylphenyl]methanesulfonamide]"
6,88.6,"Cc1c(NS(C)(=O)=O)cccc1N(Cc1ccccc1)Cc1ccc(C(=O)c2cccc(OCCc3ccccc3)c2)cc1 [Example 246, N-[3-(benzyl{4-[3-(2-phenylethoxy)benzoyl]benzyl}amino)-2-methylphenyl]methanesulfonamide]"
7,96.7,"Cc1c(NS(C)(=O)=O)cccc1N(Cc1ccccc1)Cc1ccc(C(=O)c2cccc(OCCN3CCCC3=O)c2)cc1 [Example 248, N-{3-[benzyl(4-{3-[2-(2-oxopyrrolidin-1-yl)ethoxy]benzoyl}benzyl)amino]-2-methylphenyl}methanesulfonamide]"
8,95.4,"Cc1ncsc1CCOc1cccc(C(=O)c2ccc(CN(Cc3ccccc3)c3cccc(NS(C)(=O)=O)c3C)cc2)c1 [Example 249, N-{3-[benzyl(4-{3-[2-(4-methyl-1,3-thiazol-5-yl)ethoxy]benzoyl}benzyl)amino]-2-methylphenyl}methanesulfonamide]"
9,92.9,"Cc1c(NS(C)(=O)=O)cccc1N(Cc1ccccc1)Cc1ccc(C(=O)c2ccc(OC[C@H](O)CO)cc2)cc1 [Example 250, N-(3-{benzyl[4-(4-{[(2R)-2,3-dihydroxypropyl]oxy}benzoyl)benzyl]amino}-2-methylphenyl)methanesulfonamide]"
10,94.2,"Cc1c(NS(C)(=O)=O)cccc1N(Cc1ccccc1)Cc1ccc(Oc2ccc(OCCCC(=O)NCC(=O)O)cc2)cc1 [Example 251, N-[4-(4-{4-[(benzyl{2-methyl-3-[(methylsulfonyl)amino]phenyl}amino)methyl]phenoxy}phenoxy)butanoyl]glycine]"
11,92.8,"Cc1c(NS(C)(=O)=O)cccc1N(Cc1ccccc1)Cc1ccc(Oc2ccc(OCCCC(=O)N(C)CC(=O)O)cc2)cc1 [Example 254, N-[4-(4-{4-[(benzyl{2-methyl-3-[(methylsulfonyl)amino]phenyl}amino)methyl]phenoxy}phenoxy)butanoyl]-N-methylglycine]"
12,90.6,"Cc1c(NS(C)(=O)=O)cccc1N(Cc1ccccc1)Cc1ccc(Oc2ccc(OCCCC(=O)Nc3cc(C(=O)O)n(C)c3)cc2)cc1 [Example 257, 4-{[4-(4-{4-[(benzyl{2-methyl-3-[(methylsulfonyl)amino]phenyl}amino)methyl]phenoxy}phenoxy)butanoyl]amino}-1-methyl-1H-pyrrole-2-carboxylic acid]"

# — patent US6583180B2, “Glucocorticoid receptor modulators” (Abbott Laboratories, priority 2001, dated 2003)
